Legend:
SHHF rats [1] = test: Resting heart rate in SHHF rats after Vitamin D treatment; format: in vivo, rat; conditions: 13 weeks; for Heart rate vs control SHHF rats: SQ
Text: (§1) The effects of Vitamin D compounds including Vitamin D5 and D3 on the contraction of cardiomyocytes in vivo can be studied using normal and heart failure prone rats. To test the effect of Vitamin D compounds on heart failure rats, the present inventors selected the strain of rats called Spontaneously Hypertensive Heart Failure (SHHF) rats obtained from Charles River Laboratories, Wilmington Mass., USA. The SHHF rat was developed by backcrossing the SHROB rat to the SHR/N rat. They are characterized as naturally developing congestive heart failure, hypertension, nephropathy, obesity, insulin resistance, hyperinsulinemia and Type 2 diabetes spontaneously. […] Obesity is expressed as an autosomal recessive (cp/cp) trait, and hypertension is multifactorial (Yen at al., 1974). The CHF trait has been maintained through at least 15 generations. The mode of inheritance of the CHF is probably multifactorial, much like hypertension. These rats develop many of the clinical signs of CHF: generalized and subcutaneous edema, hydrothorax, ascites, dyspnea, cyanosis, enlarged hearts, left atrial thrombosis, and hyperemia of the lungs, liver, and kidneys. These rats are hypertensive, but blood pressure falls to normal levels with the onset of severe CHF. […] These morphologic changes probably reflect early compensatory LV hypertrophy at 6-10 months of age. This is followed by LV failure with elevated right heart pressures and RVFW hypertrophy, finally leading to biventricular CHF. This progression is similar to that of hypertensive heart disease in humans. Other similarities between the SHHF model and human hypertensive-diabetic cardiomyopathy (Factor et al., 1980) and another rat model of hypertension and diabetes (Factor et al., 1983) include increased heart weight and prominent interstitial fibrosis. Pathologic alterations in SHHF Rat hearts corresponding to human dilated cardiomyopathy include four-chamber dilation, intracardiac thrombi, myocyte hypertrophy, and interstitial fibrosis (Unveferth et al., 1986).
Five treatment groups were established using SHHF rats. […]

[2] = test system: atrial natriuretic peptide (ANP) in HL-1 cardiomyocytes; test: Repression of atrial natriuretic peptide (ANP) in HL-1 cardiomyocytes (Western blot); format: cell-based; conditions: HL-1 cardiomyocytes treated 48 hours, Western analysis, vs vehicle
Description: Induction of VDR and repression of ANP by calcitriol (1,25-(OH)2vitamin-D3) and 1 alpha analogs (1α-Hydroxyitamin-D3 and 1α-hydroxysitocalciferol) is shown in the Western blot of FIG. 7. HL-1 cardiomyocyte cells were grown until confluent then split, and an equal amount (8×10^6 cells) of cells were plated for 24 hours and then treated for 48 hours either with vehicle (control) or with the indicated amount of Vitamin D compound. Cells were then harvested and subjected to Western analysis.

[3] = test system: Vitamin D receptor (VDR) in HL-1 cardiomyocytes; test: Induction of VDR in HL-1 cardiomyocytes (Western blot); format: cell-based; conditions: HL-1 cardiomyocytes treated 48 hours, Western analysis, vs vehicle
Description: HL-1 cardiomyocyte cells were grown until confluent then split, and an equal amount (8×10^6 cells) of cells were plated for 24 hours and then treated for 48 hours either with vehicle (control) or with the indicated amount of Vitamin D compound. Cells were then harvested and subjected to Western analysis.

adult cardiomyocyte = test: PKC activation and adult cardiomyocyte contractile function; format: cell-based
Description: In addition to continued acceleration of relengthening in cardiomyocytes, upon administration of Vitamin D5 the PKC targets phospholamban and cardiac troponin I (cTnI) are specifically phosphorylated by PKC within approximately 60 minutes. Without being bound to theory, it is believed that phosphorylation of phospholamban can increase Ca^2+ sequestration into the sarcoplasmic reticulum while cardiac troponin C I phosphorylation decreases myofilament Ca^2+ sensitivity, two particularly significant events in increasing the relaxation of contractile function in the adult cardiomyocyte.
The pharmaceutical compositions and methods described herein illustrate a mechanism to accelerate relaxation of cardiomyocyte contractile function via direct and rapid cellular action upon administration of 1α25-dihydroxyvitamin D5. These acute effects can be blocked by PKC inhibitors, illustratively bis-I. The phosphorylation of these key cardiac markers phospholamban and troponin C I develop within the same time period as the initial rapid decrease in peak shortening, and acceleration of contraction and relaxation rates.

[4] = Total body weight of SHHF rats; format: in vivo, rat; conditions: 100 ng/100 g body weight, SQ, 13 weeks
Description: (§2) Five treatment groups were established using SHHF rats. In each cohort (5-6 rats), the diets were substantially identical, rats were each fed a high salt diet (8% NaCl) (Harlan Teklad diet TD92012, Madison Wis. USA) and were accommodated equally. All treatment groups received a single once daily administration subcutaneously (SQ) of a Vitamin D compound at varying concentrations five times per week. The Vitamin D compound was dissolved in 1,2 propandiol containing 0.7% ethanol. Control SHHF rats were dosed with vehicle control alone. The animals were dosed for a period of 13 weeks before they were examined by echocardiography explained in more detail below. The first group comprised a control group in which they received a vehicle alone treatment lacking any Vitamin D. The second group consisted of SHHF rats injected with 18 ng 1,25 dihydroxy Vitamin D3 per dose, one dose per day treated animals. The third group consisted of SHHF rats injected with 33 ng of 1α-hydroxysitocalciferol per dose, one dose per day treated animals. The fourth group consisted of SHHF rats injected with 100 ng of 1α-hydroxysitocalciferol per dose, one dose per day treated animals. The fifth group consisted of SHHF rats injected with 300 ng of 1α-hydroxysitocalciferol per dose, one dose per day treated animals.
Blood pressure measurement by tail-cuff artery occlusion.

SHHF rats [5] = test: Cardiac hemodynamic parameters by echocardiography in SHHF rats; format: in vivo, rat; conditions: for E/A transmitral flow ratio, change vs control / Cardiac index vs control / Stroke volume vs control: 5 days per week for 13 weeks
Description: as §2
After 13 weeks of treatment with the Vitamin D compounds or vehicle control alone, the SHHF rat's cardiac hemodynamic condition was measured, recorded and analyzed for the presence or absence of cardiac tranquilization and reversal of heart failure symptoms.
Non-invasive recording electrocardiograms and echocardiography in conscious rats: Two-dimensional and M-mode echocardiographic images will be recorded using a GE S10 MHz phased-array transducer, connected to a General Electric, Vivid 7 Ultrasound System. The System used for ECG was the AnonyMOUSE ECG Screening System (Mouse Specifics, Boston, Mass. USA). The rats are placed on the instrument's platform and acclimated for 10 min prior to ECG recordings. Animals are anesthetized using an isoflurane anesthetic machine, first by introducing 4% isoflurane and 1 liter of oxygen to an induction chamber. When rats are in lateral recumbency and the breathing is slowed, they are moved to the table where they are placed on a warming pad to maintain body temperature. Their nose is placed in a cone which supplies 1-2% isoflurane and 1 liter of oxygen to maintain a surgical plane of anesthesia. The hair is removed from the upper abdominal and thoracic area with depilatory cream. ECG is monitored via non-invasive resting ECG electrodes (trimmed to fit) placed on the paw pads. The echocardiogram takes approximately 10 minutes.
Transthoracic echocardiography is performed in the supine or left lateral position. Data are analyzed by proprietal software and all rats ECG intervals analyzed by Student's two-tail t-test. […]

SHHF rats [6] = test: Systolic blood pressure by tail-cuff in SHHF rats; format: in vivo, rat; conditions: 100 ng/100 g bw, SQ, 13 weeks
Text: as §1, with “This is followed by LV failure with elevated right heart pressures and RVFW hypertrophy, finally leading to biventricular CHF. This progression is similar to that of hypertensive heart disease in humans. Other similarities between the SHHF model and human hypertensive-diabetic cardiomyopathy (Factor et al., 1980) and another rat model of hypertension and diabetes (Factor et al., 1983) include increased heart weight and prominent interstitial fibrosis. Pathologic alterations in SHHF Rat hearts corresponding to human dilated cardiomyopathy include four-chamber dilation, intracardiac thrombi, myocyte hypertrophy, and interstitial fibrosis (Unveferth et al., 1986).” left out

[7] = 300 ng/day, listed as Vitamin D5

## C=C1/C(=C\C=C2/CCC[C@]3(C)[C@@H]([C@H](C)CCCC(C)(C)O)CC[C@@H]23)C[C@@H](O)C[C@@H]1O [1,25(OH)2D3, 1,25-dihydroxyvitamin D3, reference compound]
SHHF rats [1]; 18 ng 1,25(OH)2D3, SQ
  Heart rate vs control SHHF rats or Wistar rats: higher heart rates albeit not statistically significant
[2]
  Repression of ANP expression: repression

## C=C1/C(=C\C=C2/CCC[C@]3(C)[C@@H]([C@H](C)CCCC(C)C)CC[C@@H]23)C[C@@H](O)C[C@@H]1O [1α-Hydroxyitamin-D3, reference compound]
[2]
  Repression of ANP expression: repression
[3]
  Induction of VDR: considerable induction

## C=C1/C(=C\C=C2/CCC[C@]3(C)[C@@H]([C@H](C)CC[C@@H](CC)C(C)C)CC[C@@H]23)C[C@@H](O)C[C@@H]1O [1α-hydroxysitocalciferol, 1-α-hydroxy-2,4-ethyl-9,10-seco-5,7,10(19)-cholestatrien-3 β-ol]
Adult cardiomyocyte; cardiomyocytes, upon administration of Vitamin D5
  Time to phosphorylation of phospholamban and cardiac troponin I (cTnI) by PKC: ≤ 60 min
Adult cardiomyocyte; via PKC activation
  Relaxation in adult cardiomyocyte contractile function: accelerated relaxation
SHHF rats [1]; 33 ng/100 g body weight
  Heart rate vs control SHHF rats: decrease
SHHF rats [1]; 300 ng/day
  Heart rate vs control SHHF rats: increase in heart rate
[4]
  Total body weight at 30 weeks age vs control SHHF rats: significant increased body weight
[2]
  Repression of ANP expression: remarkable repression
SHHF rats [5]; 100 ng/day
  E/A transmitral flow ratio, change vs control: statistically significant reduction
SHHF rats [5]; 100 ng/day, listed as Vitamin D5
  E/A transmitral flow ratio, change vs control: significant reduction
SHHF rats [5]; 300 ng/day, 13 week treatment
  E/A ratio: about 0.99
SHHF rats [5]; 300 ng/day
  Cardiac index vs control: statistically significant reduction
  E/A transmitral flow ratio, change vs control: statistically significant reduction
  Stroke volume vs control: statistically significant reduction
SHHF rats [5]; [7]
  Cardiac index vs control: significant reduction
  Stroke volume vs control: Most pronounced
SHHF rats [5]; all doses of Vitamin D5 (33, 100, 300 ng/day), 13 weeks
  Stroke volume, untreated SHHF rats in comparison to treated: statistically significant
[3]
  Induction of VDR: considerable induction
SHHF rats [6]
  Systolic blood pressure vs control SHHF rats: significant decreased BP

Reference: patent US10716798B2, “Compositions and methods for tranquilizing heart muscle” (THE REGENTS OF THE UNIVERSITY OF MICHIGAN, priority 2007, dated 2020)
